From the supplement of paper PMC10307832

Columns and labels:
Experiment in all cases: relative viability (nuclei count vs DMSO), 5 days (fraction); higher = more cells survive
[1] = compound: CC1=CN2C(=O)C=C(N=C2C(=C1)C(C)NC3=CC=CC=C3)N4CCOCC4 [TGX 221] + C[C@@H](Oc1cc(-c2cnn(C3CCNCC3)c2)cnc1N)c1c(Cl)ccc(F)c1Cl [Crizotinib] (partner 1 µM)
Summary of the method: (§1)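 Each reported value is a median over duplicate plates. It expresses relative viability: treated-well nuclei count divided by vehicle-well nuclei count. Lung cancer cell lines in 1536-well plates were dosed by pin tool a day after seeding, alone with one drug or with a fixed anchor-drug dose plus five library-drug doses (not always all listed) in √10 steps, and nuclei were counted after 5 days.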

[2] = compound: C1=CC=C(C(=C1)C2=CC=C(C=C2)C3=CSC4=C3C(=C(C(=O)N4)C#N)O)O + N=C(N)NC(=N)NCCc1ccccc1 [Phenformin] (partner 250 µM)
Summary of the method: as §1

[3] = compound: CC1=CN2C(=O)C=C(N=C2C(=C1)C(C)NC3=CC=CC=C3)N4CCOCC4 [TGX 221] + N=C(N)NC(=N)NCCc1ccccc1 [Phenformin] (partner 250 µM)
Summary of the method: as §1

[4] = compound: O=C(CCCCCCNC(=O)c1cnc(N(c2ccccc2)c2ccccc2)nc1)NO [Ricolinostat] + Cc1cc(Nc2cc(N3CCN(C)CC3)nc(Sc3ccc(NC(=O)C4CC4)cc3)n2)n[nH]1 [Tozasertib] (partner 0.1 µM)
Summary of the method: as §1

Cell Line	relative viability ([1]; first compound 0.08 µM)	relative viability ([1]; first compound 0.253 µM)	relative viability ([1]; first compound 0.8 µM)	relative viability ([1]; first compound 2.53 µM)	relative viability ([1]; first compound 8 µM)	relative viability ([2]; first compound 0.08 µM)	relative viability ([2]; first compound 0.253 µM)	relative viability ([2]; first compound 0.8 µM)	relative viability ([2]; first compound 2.53 µM)	relative viability ([2]; first compound 8 µM)	relative viability ([3]; first compound 0.08 µM)	relative viability ([3]; first compound 0.253 µM)	relative viability ([3]; first compound 0.8 µM)	relative viability ([3]; first compound 2.53 µM)	relative viability ([3]; first compound 8 µM)	relative viability ([4]; first compound 0.08 µM)	relative viability ([4]; first compound 0.253 µM)	relative viability ([4]; first compound 0.8 µM)	relative viability ([4]; first compound 2.53 µM)
LCLC-103H	1.12	1.06	0.986	0.959	0.876	0.265	0.342	0.374	0.354	0.305	0.302	0.344	0.311	0.321	0.324	0.443	0.401	0.393	0.337
NCI-H2342						0.578	0.704	0.58	0.602	0.469	0.445	0.57	0.583	0.559	0.601	0.496	0.461	0.401	0.426
PC-14	0.934	0.845	0.865	0.85	0.885	0.489	0.676	0.561	0.555	0.355	0.502	0.543	0.556	0.638	0.667	0.61	0.553	0.527	0.418
Calu-6	0.718	0.698	0.806	0.768	0.693														
A549	0.677	0.743	0.773	0.751	0.529	0.124	0.184	0.123	0.192	0.238	0.198	0.138	0.185	0.209	0.152				
HCC-366	0.561	0.524	0.483	0.448	0.398	0.632	0.623	0.584	0.646	0.591	0.617	0.575	0.642	0.572	0.613	0.241	0.0847	0.0896	0.0599
NCI-H2126	0.992	1.04	0.963	0.975	0.966	0.504	0.575	0.471	0.527	0.621	0.483	0.487	0.535	0.515	0.507		0.823	0.739	0.495
NCI-H1703	0.797	0.618	0.715	0.31	0.54														
NCI-H1299	0.933	0.942	0.949	0.96	0.904														
EBC-1	0.203	0.183	0.211	0.178	0.183														
NCI-H1648																0.273	0.536	0.366	0.237
NCI-H1395						0.41	0.435	0.396	0.437	0.399	0.398	0.435	0.401	0.436	0.409		0.835	0.741	0.671
SW 900						0.484	0.895	0.534	0.638	0.405	0.572	0.455	0.473	0.448	0.525	0.596	0.509	0.393	0.459
IA-LM	0.879	0.711	0.903	0.864	0.788														
